Laboratory results from patent publication US7399777B2, “Diarylcycloalkyl derivatives, processes for their preparation and their use as pharmceuticals” (Sanofi-Aventis Deutschland GmbH, priority 2001, dated 2008).
pEC50: −log10 of the molar value.

Biological target: T1, human PPARα (Homo sapiens, UniProt Q07869)
T1 construct: expressed in transfected cells; host or cells: HEK cells (human embryo kidney), stably transfected with pcDNA3-GR-GAL4-humanPPARα and the luciferase reporter pdeltaMG4LZ
T1 sequence (Q07869 167-468): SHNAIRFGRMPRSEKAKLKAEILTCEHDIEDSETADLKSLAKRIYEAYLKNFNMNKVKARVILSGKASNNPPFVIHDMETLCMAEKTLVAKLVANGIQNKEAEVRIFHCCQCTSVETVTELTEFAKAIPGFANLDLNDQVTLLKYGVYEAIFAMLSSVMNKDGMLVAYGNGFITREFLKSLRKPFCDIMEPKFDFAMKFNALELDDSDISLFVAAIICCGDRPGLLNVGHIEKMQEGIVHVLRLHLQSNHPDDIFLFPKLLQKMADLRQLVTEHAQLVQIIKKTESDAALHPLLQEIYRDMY
Experiment: PPARα reporter cell line assay (stably transfected HEK cells, GR-GAL4-PPARα fusion protein, firefly luciferase reporter)
Assay type: cell-based
Details: agonist activity in HEK PPARα reporter cell line; 24 h incubation; luciferase luminescence
Source text: To analyze the effectiveness of substances which bind to human PPARα, activating it in agonistic manner, a stable transfected HEK cell line (HEK=human embryo kidney) designated here as “PPARα reporter cell line” is used. It contains two genetic elements, a firefly luciferase reporter element and a PPARα fusion protein (GR-GAL4-PPARα) which controls the expression of the firefly luciferase reporter element in a PPARα ligand dependent way.
The PPARα reporter cell line was established in two steps: First, the firefly luciferase reporter element was constructed and stably transfected into HEK cells. Five DNA binding sites for the yeast transcription factor GAL4 (five repetitions of the sequence 5′-CGGAGTACTGTCCTCCGAG-3′) (SEQ ID NO:1) were cloned 5′ upstream of a 68 bp minimal RNA polymerase II promoter from the GR mouse mammary tumor virus long terminal repeat (accession # V01175) providing a CCAAT-box as well as a TATA-element. Cloning and sequencing was done as described by Sambrook J. et. al. (Molecular cloning, Cold Spring Harbor Laboratory Press, 1989). The complete Photinus pyralis luciferase gene (accession # M 15077) was cloned 3′ downstream of the GAL4 binding sites and the MMTV minimal promoter. The firefly luciferase reporter element consisting of 5 GAL4 binding sites, the MMTV minimal promoter and the full length luciferase gene was recloned into a plasmid backbone harboring a Zeozin resistence gene leading to plasmid “pdeltaMG4LZ”. This vector was transfected in HEK cells as described by Ausubel, F. M. et al. (Current protocols in molecular biology, Vol. 1-3, John Wiley & Sons, Inc., 1995). Stable clones have been selected using Zeozin as a selection agent (0.5 mg/ml).
In a second step, the PPARα fusion protein (GR-GAL4-PPARα) that controls expression of the firefly luciferase reporter element, was stably integrated in this cell background. For this purpose the cDNAs coding for the N-terminal 76 amino acids of the human glucocorticoid receptor (“GR”, accession # P04150) have been linked to amino acids 1-147 of the yeast GAL4-protein (accession # P04386) followed by the ligand binding domain of humanPPARα (amino acids S167-Y468, accession # S74349). The GR-GAL4-human PPARα construct was cloned into plasmid pcDNA3 (Invitrogen) were its expression is driven constitutively by the Cytomegalovirus promoter. The plasmid pcDNA3-GR-GAL4-humanPPARα was transfected in a stable HEK-cell clone that already contained the firefly luciferase reporter element described above. A double-transfected cell line containing both, the firefly luciferase reporter element as well as the GR-GAL4-humanPPARα fusion protein, has been selected on medium supplemented with Zeozin (0.5 mg/ml) and G418 (0.5 mg/ml).
The activity of PPARα agonists is determined in a three day test, described below:
The PPARα reporter cell line is cultivated up to 80% confluence in DMEM medium (# 41965-039, Life Technologies) with the following additives: 10% cs-FCS (fetal calf serum, #SH-30068.03, Hyclone), antibiotics (0.5 mg/ml of zeozin [#R250-01, Invitrogen], 0.5 mg/ml of G418 [#10131-019, Life Technologies], 1% penicillin streptomycin solution [#15140-031, Life Technologies]) and 2 mM of L-glutamine (#25030-032, Life Technologies). Cultivation is carried out in standard cell culture bottles (# 33111, Becton Dickinson) in a cell culture incubator at 37° C. and 5% CO2. The 80% confluent cells are washed once with 30 ml of PBS (#14190-094, Life Technologies), treated with 2 ml of trypsin solution (#25300-054, Life Technologies) at 37° C. for 2 min, taken up in 5 ml of the medium described above and counted in a cell counter. After dilution to 500,000 cells/ml, in each case 35,000 cells are sown into each well of a 96-well microtiter plate having a clear plastic bottom (#3610, Coming Costar). The plates are incubated in a cell incubator at 37° C. and 5% CO2 for 24 h.
The PPARα agonists to be tested are dissolved in DMSO at a concentration of 10 mM. […]

Compound | pEC50
Cc1cccc(CO[C@@H]2CCC[C@H](COCc3coc(-c4ccc(F)cc4)n3)C2)c1C(=O)O (racemic) [Example XXIV, rac-cis-2-{3-[2-(4-Fluorophenyl)oxazol-4-ylmethoxymethyl]cyclohexyloxymethyl}-6-methylbenzoic acid] | 9.05
Cc1cccc(CC[C@H]2CCC[C@H](OCc3coc(-c4ccc(F)cc4)n3)C2)c1C(=O)O (racemic) [XXIX, rac-trans-2-(2-{3-[2-(4-Fluorophenyl)oxazol-4-ylmethoxy]cyclohexyl}ethyl)-6-methylbenzoic acid] | 8.85
Cc1cccc(COC[C@@H]2CCC[C@H](OCc3coc(-c4ccc(F)cc4)n3)C2)c1C(=O)O (racemic) [XXV, rac-cis-2-{3-[2-(4-Fluorophenyl)oxazol-4-ylmethoxy]cyclohexylmethoxymethyl}-6-methylbenzoic acid] | 8.89
Cc1cccc(CO[C@@H]2CCC[C@H](OCc3coc(-c4ccc(F)cc4)n3)C2)c1C(=O)O (relative stereo) [Example II, (+)-cis-2-(3-(2-(4-Fluorophenyl)oxazol-4-ylmethoxy)cyclohexyloxymethyl)-6-methylbenzoic acid] | 9.52
Cc1cccc(CO[C@H]2CCC[C@@H](OCc3coc(-c4ccccc4)n3)C2)c1C(=O)O (single isomer, unassigned) [VI, cis-2-Methyl-6-[3-(2-phenyloxazol-4-ylmethoxy)cyclohexyloxymethyl]benzoic acid] | 9.74
Cc1cccc(CO[C@@H]2CCC[C@H](OCc3nc(-c4ccc(F)cc4)oc3C)C2)c1C(=O)O (stereo in doubt) [IX, cis-2-(3-[2-(4-Fluorophenyl)-5-methyloxazol-4-ylmethoxy]cyclohexyloxymethyl}-6-methylbenzoic acid] | 10.40
Cc1ccc(-c2nc(CO[C@@H]3CCC[C@H](OCc4cccc(C)c4C(=O)O)C3)co2)cc1 (stereo in doubt) [VII, cis-2-Methyl-6-[3-(2-p-tolyloxazol-4-ylmethoxy)cyclohexyloxymethyl]benzoic acid] | 8.40
Cc1ccc(-c2nc(CO[C@H]3CCC[C@@H](OCc4cccc(C)c4C(=O)O)C3)co2)cc1 (stereo in doubt) [VIII, cis-2-Methyl-6-[3-(2-p-tolyloxazol-4-ylmethoxy)cyclohexyloxymethyl]benzoic acid] | 10.40
Cc1cccc(CO[C@@H]2CCC[C@H](OCc3nc(-c4cccc(C(F)(F)F)c4)oc3C)C2)c1C(=O)O [Example L, 2-{1R,3S-3-[2-(3-Trifluoromethylphenyl)-5-methyloxazol-4-ylmethoxy]cyclohexyloxymethyl}-6-methylbenzoic acid] | 9.72
Cc1cccc(CO[C@@H]2CCC[C@H](OCc3nc(-c4ccccc4)oc3C)C2)c1C(=O)O [Example LX, 2-Methyl-6-[1R,3S-3-(5-methyl-2-phenyloxazol-4-ylmethoxy)cyclohexyloxymethyl]benzoic acid] | 9.70
Cc1cccc(CO[C@@H]2CCC[C@H](OCc3nc(-c4ccc(Cl)cc4)oc3C)C2)c1C(=O)O [LII, 2-{1R,3S-3-[2-(4-Chlorophenyl)-5-methyloxazol-4-ylmethoxy]cyclohexyloxymethyl}-6-methylbenzoic acid] | 10.00
Cc1cccc(-c2nc(CO[C@H]3CCC[C@@H](OCc4cccc(C)c4C(=O)O)C3)c(C)o2)c1 [LIII, 2-{1R,3S-3-[2-(3-Methylphenyl)-5-methyloxazol-4-ylmethoxy]cyclohexyloxymethyl}-6-methylbenzoic acid] | 9.40
Cc1ccc(-c2nc(CO[C@H]3CCC[C@@H](OCc4cccc(C)c4C(=O)O)C3)c(C)o2)cc1C [LIV, 2-{1R,3S-3-[2-(3,4-Dimethylphenyl)-5-methyloxazol-4-ylmethoxy]cyclohexyloxymethyl}-6-methylbenzoic acid] | 10.10
Cc1cccc(CO[C@@H]2CCC[C@H](OCc3nc(-c4cccc(C#N)c4)oc3C)C2)c1C(=O)O [LIX, 2-{1R,3S-3-[2-(3-Cyanophenyl)-5-methyloxazol-4-ylmethoxy]cyclohexyloxymethyl}-6-methylbenzoic acid] | 9.21
Cc1ccccc1-c1nc(CO[C@H]2CCC[C@@H](OCc3cccc(C)c3C(=O)O)C2)c(C)o1 [LVI, 2-{1R,3S-3-[2-(2-Methylphenyl)-5-methyloxazol-4-ylmethoxy]cyclohexyloxymethyl}-6-methylbenzoic acid] | 9.27

Continued by rising pEC50, values first:

pEC50 | Compound
8.00 | Cc1cccc(CO[C@H]2CCC[C@@H](OCc3nc(-c4ccccc4)oc3C)C2)c1C(=O)O [Example LXI, 2-Methyl-6-[1S,3R-3-(5-methyl-2-phenyloxazol-4-ylmethoxy)cyclohexyloxymethyl]benzoic acid]
9.00 | 2-{3-[2-(4-Fluorophenyl)oxazol-4-ylmethoxy]cyclohexyloxy}-6-methylbenzoic acid [Example I]
9.17 | Cc1cccc(CC[C@@H]2CCC[C@H](OCc3coc(-c4ccc(F)cc4)n3)C2)c1C(=O)O (racemic) [XXVIII, rac-cis-2-(2-{3-[2-(4-Fluorophenyl)oxazol-4-ylmethoxy]cyclohexyl}ethyl)-6-methylbenzoic acid]
9.28 | COc1cccc(-c2nc(CO[C@H]3CCC[C@@H](OCc4cccc(C)c4C(=O)O)C3)c(C)o2)c1 [IL, 2-{1R,3S-3-[2-(3-Methoxy-phenyl)-5-methyl-oxazol-4-ylmethoxy]-cyclohexyloxymethy}-6-methylbenzoic acid]
9.30 | Cc1cccc(CO[C@H]2CCC[C@@H](OCc3nc(-c4ccc(F)cc4)oc3C)C2)c1C(=O)O (stereo in doubt) [Example X, cis-2-{3-[2-(4-Fluorophenyl)-5-methyloxazol-4-ylmethoxy]cyclohexyloxymethyl}-6-methylbenzoic acid]
9.51 | Cc1cccc(CO[C@@H]2CCC[C@H](OCc3nc(-c4cccc(Cl)c4)oc3C)C2)c1C(=O)O [LI, 2-{1R,3S-3-[2-(3-Chlorophenyl)-5-methyloxazol-4-ylmethoxy]cyclohexyloxymethyl}-6-methylbenzoic acid]
9.52 | COc1ccc(-c2nc(CO[C@H]3CCC[C@@H](OCc4cccc(C)c4C(=O)O)C3)co2)cc1 (relative stereo) [IV, cis-2-(3-(2-(4-Methoxyphenyl)oxazol-4-ylmethoxy)cyclohexyloxymethyl)-6-methylbenzoic acid]
9.96 | Cc1cccc(CO[C@@H]2CCC[C@H](OCc3nc(-c4ccc(C(C)C)cc4)oc3C)C2)c1C(=O)O [Example LXIX, 2-Methyl-6-[(1R,3S)-3-(5-methyl-2-(4-(2-propyl)-phenyl)-oxazol-4-ylmethoxy)-cyclohexyloxymethyl]-benzoic acid]
10.05 | Cc1ccc(-c2nc(CO[C@H]3CCC[C@@H](OCc4cccc(C)c4C(=O)O)C3)c(C)o2)c(C)c1 [LV, 2-{1R,3S-3-[2-(2,4-Dimethylphenyl)-5-methyloxazol-4-ylmethoxy]cyclohexyloxymethyl}-6-methylbenzoic acid]
